# Results taken from patent US20250223412A1, “BLOWING AGENT, FOAMING RESIN COMPOSITION, POLYURETHANE UREA RESIN FOAM, AND PRODUCTION METHOD FOR POLYURETHANE UREA FOAM” (MITSUBISHI GAS CHEMICAL COMPANY, INC., priority 2022, published 2025).
# Test: Maximum carbon dioxide (CO2) release temperature of amine compound (DSC after CO2 absorption from air)
# Format: physicochemical
# Conditions: amine compound with CO2 absorbed (air, 23° C., 50% RH, 24 hours); heating 10° C./minute, 23 to 250° C., nitrogen
# Description: A carbon dioxide detector and a Petri dish were placed in an openable desiccator (inner dimension: 370 mm×260 mm×272 mm). Subsequently the amine compound (5 mmol) was added to the Petri dish in the desiccator and the door was immediately closed to leave the amine compound to stand in the desiccator in an air environment at 23° C. and 50% RH for 24 hours. The initial concentration of carbon dioxide was adjusted to about 400 ppm.
# Then the amine compound was taken out of the desiccator to give an amine compound with carbon dioxide absorbed. The maximum carbon dioxide release temperature of the amine compound with carbon dioxide absorbed was measured by subjecting the amine compound to DSC as described below. First, differential scanning calorimetry of the amine compound was performed under conditions of a temperature range of 23 to 250° C., a heating rate of 10° C./minute and a nitrogen atmosphere using a differential thermogravimeter (product name DTG-60 made by Shimadzu Corporation). The temperature at which the amount of heat absorbed due to the desorption of carbon dioxide was the maximum was calculated from the DSC curve obtained, and the temperature was determined as the maximum carbon dioxide release temperature of the amine compound.
row,Maximum CO2 release temperature [°C],SMILES
1,125.7,"NCC1CCCC(CN)C1 (stereo not shown) [1,3-BAC, 1,3-bis(aminomethyl)cyclohexane]"
2,103.4,"NCCN [Ethylenediamine, ethylenediamine]"
3,114.4,"CC1(C)CC(N)CC(C)(CN)C1 (stereo not shown) [IPDA, isophoronediamine]"
4,135.5,"NCc1cccc(CN)c1 [MXDA, metaxylylenediamine]"
